Reference: patent publication US20240423923A1, “EXTRACELLULAR VESICLES FROM MICROALGAE, THEIR BIODISTRIBUTION UPON ADMINISTRATION, AND USES” (AGS THERAPEUTICS SAS, priority 2022, published 2024)

Key:
[1] = medial prefrontal cortex, anterior cingulate cortex, central nucleus of amygdala; cited from earlier work
[2] = biological target: Flagellin Sensing 2 receptor (FLS2) (Arabidopsis thaliana) (UniProt Q9FL28); experiment: cell-based or functional assay
UniProt Q9FL28, sequence (Q9FL28 24-1173): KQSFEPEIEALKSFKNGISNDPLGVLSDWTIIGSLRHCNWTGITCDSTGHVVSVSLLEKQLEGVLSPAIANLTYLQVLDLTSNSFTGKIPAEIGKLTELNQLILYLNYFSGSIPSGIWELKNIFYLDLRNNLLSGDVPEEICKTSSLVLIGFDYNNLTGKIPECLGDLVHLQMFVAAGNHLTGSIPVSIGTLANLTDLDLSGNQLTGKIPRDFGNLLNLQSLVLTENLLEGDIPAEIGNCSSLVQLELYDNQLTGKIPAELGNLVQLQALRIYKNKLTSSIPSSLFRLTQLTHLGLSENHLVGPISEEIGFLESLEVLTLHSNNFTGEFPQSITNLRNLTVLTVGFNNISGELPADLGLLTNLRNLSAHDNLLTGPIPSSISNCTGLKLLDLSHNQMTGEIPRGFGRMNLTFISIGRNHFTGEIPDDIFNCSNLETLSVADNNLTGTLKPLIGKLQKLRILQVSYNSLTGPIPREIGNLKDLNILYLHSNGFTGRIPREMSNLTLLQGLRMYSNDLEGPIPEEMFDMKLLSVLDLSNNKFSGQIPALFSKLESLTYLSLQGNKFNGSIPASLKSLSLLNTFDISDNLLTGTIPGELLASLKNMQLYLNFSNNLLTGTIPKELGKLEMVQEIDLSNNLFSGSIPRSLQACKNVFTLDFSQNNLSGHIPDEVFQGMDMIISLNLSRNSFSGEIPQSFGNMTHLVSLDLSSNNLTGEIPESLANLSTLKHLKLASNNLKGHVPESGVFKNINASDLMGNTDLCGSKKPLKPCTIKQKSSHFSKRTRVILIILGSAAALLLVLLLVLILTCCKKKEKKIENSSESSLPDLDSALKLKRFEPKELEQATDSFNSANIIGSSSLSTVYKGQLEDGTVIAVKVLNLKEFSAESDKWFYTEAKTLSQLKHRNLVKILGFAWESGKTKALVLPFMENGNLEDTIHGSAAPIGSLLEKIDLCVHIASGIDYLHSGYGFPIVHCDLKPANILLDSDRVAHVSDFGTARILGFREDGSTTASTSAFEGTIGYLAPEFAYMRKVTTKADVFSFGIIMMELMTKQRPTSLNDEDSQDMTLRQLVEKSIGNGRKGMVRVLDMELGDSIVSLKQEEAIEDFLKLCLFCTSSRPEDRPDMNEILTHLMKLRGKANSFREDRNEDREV

flg22 peptide (22 amino acid synthetic peptide that mimics the conserved N-terminal region of bacterial flagellin), sequence (P21184 30-51): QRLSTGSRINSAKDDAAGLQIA

Row | Compound | increase in Fos-like immunoreactivity [1] | stomatal closure assay; effect of flg22-loaded EVs compared with free flg22 peptide [2] [nM]
1 | CCN(CC)C(=O)[C@@H]1C=C2c3cccc4[nH]cc(c34)C[C@H]2N(C)C1 [LSD, Lysergic acid diethylamide] | a five- to eight-fold increase | –
2 | flg22 peptide (22 amino acid synthetic peptide that mimics the conserved N-terminal region of bacterial flagellin) | – | > 10
